Reference: patent EP0038629A1, “Virazole derivatives, process for their preparation and use as antiviral agents” (priority 1980, dated 1981)
Where two headings read alike, the source gives them in different places. Marks after values point to notes of the source that are not given here.

System: mouse adapted strain of the A2/HK/l/68 virus
Details: 10^-4 mole/kg doses twice daily for 3 days; for Weight Change Day 0 -Day 3: dosing period, indication of toxicity

Row | Compound | Day 8 Means Body Wt. (Expt. 1, subcutaneous) [gm] | Day 8 Means Lung WT./ Body Wt. Ratio x 100 (Expt. 1, subcutaneous) | Day 8 Means Lung Wt. (Expt. 1, subcutaneous) [mg] | Weight Change Day 3 -Day 8 (Expt. 1, subcutaneous) | Weight Change Day 0 -Day 3 (Expt. 1, subcutaneous) | Day 8 Means Body Wt. (Expt. 2, subcutaneous) [gm] | Day 8 Means Lung WT./ Body Wt. Ratio x 100 (Expt. 2, subcutaneous) | Day 8 Means Lung Wt. (Expt. 2, subcutaneous) [mg] | Weight Change Day 3 -Day 8 (Expt. 2, subcutaneous) | Weight Change Day 0 -Day 3 (Expt. 2, subcutaneous) | Day 8 Means Body Wt. (Expt. 3, oral) [gm] | Day 8 Means Lung WT./ Body Wt. Ratio x 100 (Expt. 3, oral) | Day 8 Means Lung Wt. (Expt. 3, oral) [mg] | Weight Change Day 3 -Day 8 (Expt. 3, oral) | Weight Change Day 0 -Day 3 (Expt. 3, oral)
1 | NC(=O)c1ncn([C@@H]2O[C@H](CO)[C@@H](O)[C@H]2O)n1 [Compound 1, 1-β-D-ribofuranosyl-3-carbamoyl-1,2,4-triazole, reference compound] | 20.7 | 1.16 | 238 | +0.8 | +0.7* | 20.5 | 1.36 | 291 | +1.8 | +0.2* | 19.1 | 1.40** | 285 | -0.8 | +0.9*
2 | 1-[β-D-(5'-succinyl-2',3'-carbonyl)ribofuranosyl]-3-carbamoyl-1,2,4-triazole amantadine salt [Compound 6] | 22.4 | 1.25 | 273 | +0.9 | +2.4 | 21.2 | 1.30** | 266 | +0.4 | +2.1 | 22.5 | 1.25** | 275 | +0.7 | +2.6
